The target of data set [1] is T1, COX-2 (Homo sapiens, UniProt P35354).
T1 construct: purchased Cayman Chemical Company, Ann Arbor, MI, USA
T1 sequence (P35354 18-604): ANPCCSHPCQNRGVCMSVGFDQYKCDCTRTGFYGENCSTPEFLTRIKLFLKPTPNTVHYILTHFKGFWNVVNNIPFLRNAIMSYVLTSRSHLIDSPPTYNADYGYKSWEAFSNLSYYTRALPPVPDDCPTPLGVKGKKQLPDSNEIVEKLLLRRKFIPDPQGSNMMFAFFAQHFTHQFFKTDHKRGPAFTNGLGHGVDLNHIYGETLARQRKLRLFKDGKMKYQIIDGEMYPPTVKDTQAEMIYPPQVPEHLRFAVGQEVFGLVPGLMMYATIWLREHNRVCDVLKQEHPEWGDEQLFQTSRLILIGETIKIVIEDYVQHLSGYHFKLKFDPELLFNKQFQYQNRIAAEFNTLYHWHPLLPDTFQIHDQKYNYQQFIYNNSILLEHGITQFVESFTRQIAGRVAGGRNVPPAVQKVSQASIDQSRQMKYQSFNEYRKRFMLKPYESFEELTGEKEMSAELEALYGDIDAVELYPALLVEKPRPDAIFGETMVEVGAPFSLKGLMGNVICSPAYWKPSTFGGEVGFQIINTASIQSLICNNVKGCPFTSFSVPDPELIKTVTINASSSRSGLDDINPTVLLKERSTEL
As to the kind of experiment: COX colorimetric inhibitor screening assay, COX-2. The format is biochemical. The text has this:
The compounds were studied for their potencies to inhibit COX-1 and COX-2 enzymes by the colorimetric inhibitor screening assay.
A COX Colorimetric Inhibitor Screening Assay Kit, produced by Cayman Chemical Company, Ann Arbor, MI, USA, was used. It used the colorimetric monitoring of oxidized form of TMPD (N,N,N′,N′-tetramethyl-p-phenylenediamine) which was produced during reduction of prostaglandin G2 (PGG2) to PGH2. […] Reagents used it this assay were: COX-1 and COX-2 enzymes, Tris-HCl buffer, solutions of heme in DMSO and TMPD, arachidonic acid, KOH. To be sure that 100% enzymatic activity was achieved each sample was measured 3 times. The probes were measured after two minutes of incubation with tested compounds in the comparison to the initial activity of enzyme.

Data set [2] has as its system NHDF (normal human dermal fibroblasts). Briefly: MTT assay, NHDF. The settings on record: 48 h incubation, read-out: IC50 [µM] ± SD NHDF. The format is cell-based. The text has this: (§1) The MTT (3-[4,5-dimethylthiazol-2-yl]-2,5-diphenyl tetrazolium bromide) assay was used to determine the cytotoxicity of tested compounds towards different cell lines: normal human dermal fibroblasts (NHDF), kidney epithelial cells (VERO), fibroblasts from Chinese hamster lung (V79) and four human cancer cells: A549 (pulmonary basal cell alveolar adenocarcinoma), MCF-7 (breast adenocarcinoma), LoVo (colon adenocarcinoma), and its drug resistant subline LoVo/Dx. The cell lines used in this study express COX-1 and COX-2. The LoVo line expressed COX-1, the LoVo/Dx subline express both COX-1 and COX-2 [61].
(§2) Each cell line was grown in the culture media recommended by supplier. Before the test they were detached with trypsin/EDTA solution, then to neutralize the effect of Trypsin/EDTA solution, FBS containing medium was used. After centrifugation the cells were stained with 0.4% solution of trypan blue, counted and inspected for viability using microscope. In the end, cells were inserted into 96-well culture plates and incubated in CO2 incubator (37 °C, 24 h). The number of cells was 2 × 10^3 cells per well. The tested compounds with different concentrations (5, 10, 20, 50, 100 µM) were dissolved in DMSO and then added to the cells (the final DMSO concentration was 0.1%). The cultures were incubated for another 48 h. After that time the cells were collected to be used in tests.
MTT assay was used to find out how tested compounds influence the metabolic activity of investigated cell lines. The cells were incubated with tested compounds. After removing of supernatant, 1 mg/mL of MTT solution in MEM was added to the plate (to each well) and then the plates were incubated at 37 °C for 2 h. The medium was removed again, and formazan crystals were dissolved in isopropanol. A Varioscan LUX microplate reader (Thermo Fisher Scientific, Waltham, MA, USA) was used to measure absorbance at 570 nm.

For data set [3], the system named is LoVo cell line. As to the kind of experiment: Intracellular ROS level (DCFH-DA), LoVo cells. The format is cell-based. The note with it: Homo sapiens, 4 h, compound 100 μM. How it is done:
Two cell lines were chosen for investigations: V79 (Chinese hamster lung fibroblasts) and LoVo. V79 normal cells are widely used as the cell line tested in the studies of the oxidative stress. These cells are a living system model to explain the mechanism of ROS effects caused by varied compounds [73].
First, the tested compounds (in concentration of 100 μM) were added to the cell cultures and cells were incubated for 4 h. Then cells were washed and incubated with DCFH-DA (non-fluorescent probe) in dark at 37 °C for 2 h at CO2 [79]. Non-fluorescent, non-polar DCFH-DA (2′7′-dichlorodihydrofluorescein diacetate) at concentration of 25 μM was used as a marker of oxidative stress to determine the intracellular ROS levels. […] In this time, DCFH-DA which penetrated into the cells, was hydrolyzed by esterases to polar, non-fluorescent DCFH (2′7′-dichlorodihydrofluorescein) and then oxidized in the presence of ROS (reactive oxygen species) to fluorescent DCF (2′7′-dichlorofluorescein). DCF was measured using Varioscan LUX microplate reader (Thermo Fisher Scientific, Waltham, MA, USA) at λex = 485 nm and λem = 535 nm.
E is the culture with the tested compound and E0 is the negative control without the compound. The routine statistical methods: two-way analysis of variance ANOVA as well as Tukey’s post-hoc test were used. It allowed us to determine the statistical significance of results, where p < 0.05 was set as significant. The statistical indicators were estimated using Statistica 13.3 software.

For data set [4], the system named is LoVo/Dx (drug resistant subline of LoVo). As to the kind of experiment: MTT assay, LoVo/Dx. The format is cell-based. The note with it: Homo sapiens, 48 h incubation, read-out: IC50 [µM] ± SD LoVo/Dx.
Source text: as §1
as §2, with “In the end, cells were inserted into 96-well culture plates and incubated in CO2 incubator (37 °C, 24 h).” left out
MTT assay was used to find out how tested compounds influence the metabolic activity of investigated cell lines. The cells were incubated with tested compounds. […] The medium was removed again, and formazan crystals were dissolved in isopropanol.

Where [5] appears, read: with H2O2 (100 μM, 30 min), n = 5, read-out: ROS scavenging activity, Mean E/E0 ± SD, with H2O2.
The mark [6] stands for this setting: without H2O2, n = 5, read-out: ROS scavenging activity, Mean E/E0 ± SD, without H2O2.

Where two headings read alike, the source gives them in different places.

Molecule `Cc1cc(C)c(C(=O)NCc2nn(CC(=O)NN)c(=S)o2)c(S)n1` [Compound 4, N-{[4-(2-hydrazinyl-2-oxoethyl)-5-sulfanylidene-4,5-dihydro-1,3,4-oxadiazol-2-yl]methyl}-4,6-dimethyl-2-sulfanylpyridine-3-carboxamide] displayed a melting point of 201 to 205 °C. In data set [1] (after 2 min of incubation, n = 5), the “IC50 [µM] ± SD COX-2” value is reported as “showed only COX-1 inhibitory activity”. In addition, the IC50 in data set [2] was 57.5 ± 1.22 µM. Besides, the activity at 100 µM in data set [3] (setting [5]) amounted to 83 ± 8%. Besides, in data set [3] (setting [6]), the activity at 100 µM was 69 ± 33%. Also, the IC50 in data set [4] came to 5.73 ± 3.84 µM.
The molecule `Cc1cc(C)c(C(=O)NCc2nn(CC(=O)NN=Cc3ccc(C#N)cc3)c(=S)o2)c(S)n1` [Compound 9, 4,6-Dimethyl-N-{[4-(2-(2-(4-cyanobenzylidene)hydrazinyl)-2-oxoethyl)-5-sulfanylidene-4,5-dihydro-1,3,4-oxadiazole-2-yl]methyl}-2-sulfanylpyridine-3-carboxamide] displayed a melting point of 298 to 300 °C. Moreover, the IC50 in data set [1] (after 2 min of incubation, n = 5, read-out: IC50 [µM] ± SD COX-2) was 103 ± 10.6 µM. For the same molecule, the “COX-2/COX-1 Selectivity Ratio” value in data set [1] (ratio of IC50 COX-2 / IC50 COX-1) is on record as 0.67. The IC50 in data set [2] was 59.4 ± 1.9 µM. Moreover, the activity at 100 µM in data set [3] (setting [5]) was 91 ± 19%. Besides, the activity at 100 µM in data set [3] (setting [6]) came out at 76 ± 22%. In data set [4], the IC50 is 6.87 ± 1.45 µM.

The record behind these values is publication PMC8745710, “Biological Evaluation and Molecular Docking Studies of Novel 1,3,4-Oxadiazole Derivatives of 4,6-Dimethyl-2-sulfanylpyridine-3-carboxamide” (International Journal of Molecular Sciences, 2022).
